Data reported in patent US10844038B2, “1,2-dithiolane compounds useful in neuroprotection, autoimmune and cancer diseases and conditions” (SABILA BIOSCIENCES LLC, priority 2016, dated 2020).

Tests used:
FYN = FYN (Homo sapiens (Human), UniProt P06241); experiment: Rabbit reticulocyte lysate assay (KinaseSeeker competition binding); settings: at 1 μM
CSK = CSK (Homo sapiens (Human), UniProt P41240); experiment: Radioisotope filter binding assay; type: biochemical; settings: read-out: IC50 Activity Levels Against SRC Family Kinases: CSK
Sequence of CSK (P41240 whole entry): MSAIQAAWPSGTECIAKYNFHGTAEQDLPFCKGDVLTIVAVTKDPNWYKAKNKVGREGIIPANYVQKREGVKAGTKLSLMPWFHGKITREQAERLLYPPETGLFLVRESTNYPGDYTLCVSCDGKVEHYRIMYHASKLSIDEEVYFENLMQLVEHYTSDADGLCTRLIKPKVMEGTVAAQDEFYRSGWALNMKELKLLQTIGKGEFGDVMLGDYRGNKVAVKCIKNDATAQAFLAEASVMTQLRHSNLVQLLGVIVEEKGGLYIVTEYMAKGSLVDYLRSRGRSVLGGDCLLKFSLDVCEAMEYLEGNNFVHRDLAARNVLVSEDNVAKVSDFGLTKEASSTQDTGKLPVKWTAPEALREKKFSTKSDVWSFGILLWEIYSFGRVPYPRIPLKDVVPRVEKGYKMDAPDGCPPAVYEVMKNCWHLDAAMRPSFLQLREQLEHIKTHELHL
In short: (§1)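 Readout is 33P-labelled product captured on P81 ion-exchange filter after washing off unreacted phosphate. Reactions contained kinase, substrate, cofactors and test compound in pH 7.5 Hepes/MgCl2 buffer with 1% DMSO, run 2 h at room temperature after 20 min compound preincubation.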

FRK = FRK (Homo sapiens (Human), UniProt P42685); experiment: Radioisotope filter binding assay; type: biochemical; settings: read-out: IC50 Activity Levels Against FRK Family Kinases: FRK
Sequence of FRK (P42685 whole entry): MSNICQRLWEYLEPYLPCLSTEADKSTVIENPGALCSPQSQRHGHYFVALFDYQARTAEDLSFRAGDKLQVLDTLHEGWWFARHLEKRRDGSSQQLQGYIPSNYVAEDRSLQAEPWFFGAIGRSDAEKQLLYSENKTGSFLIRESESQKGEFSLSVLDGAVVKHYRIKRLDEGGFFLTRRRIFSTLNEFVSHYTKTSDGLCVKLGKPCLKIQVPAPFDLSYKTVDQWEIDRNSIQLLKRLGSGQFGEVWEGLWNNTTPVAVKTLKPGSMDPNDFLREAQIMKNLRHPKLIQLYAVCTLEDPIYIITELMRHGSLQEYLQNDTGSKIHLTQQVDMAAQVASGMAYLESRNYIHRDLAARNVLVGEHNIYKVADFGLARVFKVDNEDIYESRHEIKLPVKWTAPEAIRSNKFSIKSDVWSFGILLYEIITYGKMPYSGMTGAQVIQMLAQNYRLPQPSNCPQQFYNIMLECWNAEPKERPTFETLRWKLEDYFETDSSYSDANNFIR
In short: as §1

ITK = ITK (Homo sapiens (Human), UniProt Q08881); experiment: Radioisotope filter binding assay; type: biochemical; settings: read-out: IC50 Activity Levels Against Representative TEC Family Kinases: ITK
Sequence of ITK (Q08881 whole entry): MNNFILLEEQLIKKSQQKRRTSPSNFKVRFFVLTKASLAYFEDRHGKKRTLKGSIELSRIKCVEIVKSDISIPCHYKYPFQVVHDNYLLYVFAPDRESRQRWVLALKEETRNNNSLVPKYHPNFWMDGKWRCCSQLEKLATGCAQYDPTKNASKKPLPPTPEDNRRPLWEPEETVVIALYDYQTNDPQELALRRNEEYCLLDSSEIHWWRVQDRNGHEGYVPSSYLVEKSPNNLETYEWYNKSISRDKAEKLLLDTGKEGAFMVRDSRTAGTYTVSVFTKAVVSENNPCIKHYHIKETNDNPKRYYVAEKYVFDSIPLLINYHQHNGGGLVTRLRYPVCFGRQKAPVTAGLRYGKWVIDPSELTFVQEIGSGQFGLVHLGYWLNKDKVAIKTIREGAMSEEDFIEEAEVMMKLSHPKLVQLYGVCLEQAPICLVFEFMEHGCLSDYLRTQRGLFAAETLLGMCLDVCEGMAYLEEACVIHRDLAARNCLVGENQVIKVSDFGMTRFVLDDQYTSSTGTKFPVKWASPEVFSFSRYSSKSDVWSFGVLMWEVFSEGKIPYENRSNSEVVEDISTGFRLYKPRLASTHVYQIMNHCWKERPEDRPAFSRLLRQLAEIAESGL
In short: as §1

BRAF (V600E) = BRAF (V600E) (Homo sapiens (Human), UniProt P15056, V600E); experiment: KINOMEscan competition binding assay (Kd); settings: read-out: Kd Values Against MAPK Pathway Kinases: BRAF (V600E)
Sequence of BRAF (V600E) (P15056 whole entry V600E): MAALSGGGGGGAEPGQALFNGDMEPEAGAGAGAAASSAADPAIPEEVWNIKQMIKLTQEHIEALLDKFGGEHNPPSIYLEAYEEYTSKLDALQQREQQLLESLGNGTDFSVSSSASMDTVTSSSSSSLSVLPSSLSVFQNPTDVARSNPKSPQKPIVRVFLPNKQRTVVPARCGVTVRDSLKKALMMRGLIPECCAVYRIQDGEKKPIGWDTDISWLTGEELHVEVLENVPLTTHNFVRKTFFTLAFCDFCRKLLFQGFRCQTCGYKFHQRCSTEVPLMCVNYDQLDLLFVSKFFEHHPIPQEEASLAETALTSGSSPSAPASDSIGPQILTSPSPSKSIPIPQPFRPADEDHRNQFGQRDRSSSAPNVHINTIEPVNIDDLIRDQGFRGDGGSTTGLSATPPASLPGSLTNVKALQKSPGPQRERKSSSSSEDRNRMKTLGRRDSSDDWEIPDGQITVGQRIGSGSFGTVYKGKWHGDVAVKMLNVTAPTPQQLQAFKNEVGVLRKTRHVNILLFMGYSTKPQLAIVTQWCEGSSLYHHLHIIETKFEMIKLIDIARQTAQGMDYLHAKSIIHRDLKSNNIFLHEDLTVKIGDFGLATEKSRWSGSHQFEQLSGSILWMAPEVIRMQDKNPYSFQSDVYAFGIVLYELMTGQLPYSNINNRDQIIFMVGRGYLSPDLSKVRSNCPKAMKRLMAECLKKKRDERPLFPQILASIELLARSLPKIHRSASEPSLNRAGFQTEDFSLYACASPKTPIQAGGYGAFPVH

ERK1 = ERK1 (Homo sapiens (Human), UniProt P27361); experiment: KINOMEscan competition binding assay (Kd); settings: read-out: Kd Values Against MAPK Pathway Kinases: ERK1
Sequence of ERK1 (P27361 whole entry): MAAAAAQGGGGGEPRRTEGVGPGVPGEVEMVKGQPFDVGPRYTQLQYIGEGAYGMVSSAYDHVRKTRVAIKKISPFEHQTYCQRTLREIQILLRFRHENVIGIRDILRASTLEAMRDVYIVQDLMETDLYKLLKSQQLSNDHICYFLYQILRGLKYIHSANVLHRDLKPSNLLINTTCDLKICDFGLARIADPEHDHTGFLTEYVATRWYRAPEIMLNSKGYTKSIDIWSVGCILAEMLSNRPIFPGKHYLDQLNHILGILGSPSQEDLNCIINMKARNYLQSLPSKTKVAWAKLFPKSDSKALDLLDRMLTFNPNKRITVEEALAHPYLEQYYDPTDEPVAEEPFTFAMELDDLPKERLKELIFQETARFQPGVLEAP

ERK2 = ERK2 (Homo sapiens (Human), UniProt P28482); experiment: KINOMEscan competition binding assay (Kd); settings: read-out: Kd Values Against MAPK Pathway Kinases: ERK2
Sequence of ERK2 (P28482 whole entry, canonical isoform): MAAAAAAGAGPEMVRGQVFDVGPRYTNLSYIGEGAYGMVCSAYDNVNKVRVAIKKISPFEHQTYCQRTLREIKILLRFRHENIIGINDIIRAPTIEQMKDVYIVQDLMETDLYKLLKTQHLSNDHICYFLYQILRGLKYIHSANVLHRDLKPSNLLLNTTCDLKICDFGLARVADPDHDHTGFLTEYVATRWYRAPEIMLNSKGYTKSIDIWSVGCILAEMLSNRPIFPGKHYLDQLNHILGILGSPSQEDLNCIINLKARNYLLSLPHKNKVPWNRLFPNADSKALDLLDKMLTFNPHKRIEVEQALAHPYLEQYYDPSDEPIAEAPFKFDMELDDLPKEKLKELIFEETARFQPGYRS

MEK2 = MEK2 (Homo sapiens (Human), UniProt P36507); experiment: KINOMEscan competition binding assay (Kd); settings: read-out: Kd Values Against MEK Kinases Isoforms: MEK2
Sequence of MEK2 (P36507 whole entry, canonical isoform): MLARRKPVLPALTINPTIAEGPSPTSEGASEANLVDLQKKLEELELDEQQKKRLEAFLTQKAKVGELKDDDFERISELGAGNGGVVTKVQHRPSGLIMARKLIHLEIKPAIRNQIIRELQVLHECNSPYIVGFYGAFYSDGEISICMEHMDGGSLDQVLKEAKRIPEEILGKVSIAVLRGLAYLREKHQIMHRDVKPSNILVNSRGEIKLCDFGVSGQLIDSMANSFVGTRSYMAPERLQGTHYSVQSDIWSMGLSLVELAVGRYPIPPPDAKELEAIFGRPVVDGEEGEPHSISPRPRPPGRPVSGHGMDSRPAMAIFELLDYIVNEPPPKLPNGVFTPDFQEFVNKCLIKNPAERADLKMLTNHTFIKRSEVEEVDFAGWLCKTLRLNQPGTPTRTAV

MEK3 = MEK3 (Homo sapiens (Human), UniProt P46734); experiment: KINOMEscan competition binding assay (Kd); settings: read-out: Kd Values Against MEK Kinases Isoforms: MEK3
Sequence of MEK3 (P46734 whole entry, canonical isoform): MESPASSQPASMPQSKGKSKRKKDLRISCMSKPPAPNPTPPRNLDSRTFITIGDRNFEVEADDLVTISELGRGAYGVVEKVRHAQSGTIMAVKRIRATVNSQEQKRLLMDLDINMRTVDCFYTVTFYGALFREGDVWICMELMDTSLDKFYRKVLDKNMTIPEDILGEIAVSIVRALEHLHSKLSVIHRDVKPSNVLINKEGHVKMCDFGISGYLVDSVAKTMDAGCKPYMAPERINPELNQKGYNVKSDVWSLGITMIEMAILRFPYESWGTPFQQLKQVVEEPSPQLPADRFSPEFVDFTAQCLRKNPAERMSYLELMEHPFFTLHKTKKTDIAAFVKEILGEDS

MEK4 = MEK4 (Homo sapiens (Human), UniProt P45985); experiment: KINOMEscan competition binding assay (Kd); settings: read-out: Kd Values Against MEK Kinases Isoforms: MEK4
AurA = AurA (Homo sapiens (Human), UniProt O14965); experiment: Radioisotope filter binding assay; type: biochemical; settings: read-out: IC50 Activity Levels Against RTKs (c-Kit, RET, HER4) and AurA, CHK2 Kinases: AurA
Sequence of AurA (O14965 whole entry): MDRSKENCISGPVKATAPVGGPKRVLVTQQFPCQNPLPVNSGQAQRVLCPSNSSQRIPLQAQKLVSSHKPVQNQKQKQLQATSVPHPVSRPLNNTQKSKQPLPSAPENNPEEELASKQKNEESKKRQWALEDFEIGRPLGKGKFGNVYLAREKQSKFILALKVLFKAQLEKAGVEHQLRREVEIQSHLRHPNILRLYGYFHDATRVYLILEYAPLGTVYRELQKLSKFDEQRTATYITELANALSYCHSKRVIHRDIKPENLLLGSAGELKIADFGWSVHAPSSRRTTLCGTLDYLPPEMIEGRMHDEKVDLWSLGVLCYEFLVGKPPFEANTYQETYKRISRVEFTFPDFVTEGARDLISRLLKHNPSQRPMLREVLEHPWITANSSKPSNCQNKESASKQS
In short: as §1

Sequence of FYN (P06241 whole entry): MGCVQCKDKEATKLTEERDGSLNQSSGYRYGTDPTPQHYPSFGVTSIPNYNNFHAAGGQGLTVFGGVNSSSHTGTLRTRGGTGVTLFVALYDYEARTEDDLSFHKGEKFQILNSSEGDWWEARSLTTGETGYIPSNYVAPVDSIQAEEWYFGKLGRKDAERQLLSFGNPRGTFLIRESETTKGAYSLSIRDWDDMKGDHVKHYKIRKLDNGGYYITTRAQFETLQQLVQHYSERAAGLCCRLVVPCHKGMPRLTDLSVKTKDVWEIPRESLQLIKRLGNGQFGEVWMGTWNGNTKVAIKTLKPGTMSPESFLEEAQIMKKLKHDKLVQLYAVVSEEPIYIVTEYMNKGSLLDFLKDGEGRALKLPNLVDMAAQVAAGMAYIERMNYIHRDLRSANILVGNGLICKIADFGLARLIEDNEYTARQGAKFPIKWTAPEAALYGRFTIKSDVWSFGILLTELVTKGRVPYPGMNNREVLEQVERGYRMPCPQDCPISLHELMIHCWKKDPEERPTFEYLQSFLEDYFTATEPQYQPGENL

Row | SMILES | % Inhibition Against SRC Family Kinases: FYN (FYN) [%] | IC50 (CSK) [µM] | IC50 (FRK) [µM] | IC50 (ITK) [µM] | Kd (BRAF (V600E)) [µM] | Kd (ERK1) [µM] | Kd (ERK2) [µM] | Kd (MEK2) [µM] | Kd (MEK3) [µM] | Kd (MEK4) [µM] | IC50 (AurA) [µM]
1 | Nc1ncnc2c1c(-c1ccc(Oc3ccccc3)cc1)nn2C[C@H]1SSC[C@@H]1O [43 B.] | 77 | 0.005 to 0.099 | 0.005 to 0.099 | 1 to 10 |  |  |  |  |  |  | 
2 | Nc1ncnc2c1c(-c1ccc(Oc3ccccc3)cc1)nn2C[C@H]1SSC[C@H]1O [46 B.] |  |  |  |  | 1 to 10 | 1 to 10 | 1 to 10 | 0.1 to 0.999 | 1 to 10 | 1 to 10 | 0.1 to 0.999
